Test results reported in US4374980A, “3'-Deamino-3'-morpholino carminomycin” (Zaidan Hojin Biseibutsu Kagaku Kenkyu Kai, priority 1981, dated 1983).
Converted amounts (≈) assume the structure as drawn.

What was measured:
leukemic cells L1210 [1] = assay: Inhibition of DNA synthesis (14C-thymidine incorporation) in cultivated leukemic cells L1210 of mice; type: cell-based; conditions: Mus musculus, L1210, 1 h, 60 minutes, 37° C., RPMI 1640, 10% calf serum
Description: (§1) (A) Activity of inhibiting growth, DNA synthesis and RNA synthesis of cultivated leukemic cells L1210 of mice.
(§2) Separately, the above cultivated cells L1210 were suspended in a concentration of 1×10^5 /ml in an RPMI 1640 medium containing 10% of calf serum, and cultivated for 1 to 2 hours in an incubator containing carbon dioxide gas at 37° C. Then, 3'-deamino-3'-morpholino-carminomycin was added in various concentrations,and 15 minutes later, ^14 C-uridine (0.05 μCi/ml) and ^14 C-thymidine (0.05 μCi/ml) were added. Thus, the cells were cultivated at 37° C. for 60 minutes. A 10% aqueous solution of trichloroacetic acid was added to the reaction liquor to stop the reaction and simultaneously precipitate an acid-insoluble matter. The acid-insoluble matter was washed three times with a 10-5% aqueous solution of trichloroacetic acid, and then dissolved in formic acid. The radioactivity of the acid-insoluble matter was measured. From the ratio of incorporated radiation to that of a control group, the concentrations which inhibited radiation by 50% were measured.

leukemic cells L1210 [2] = assay: Antitumor activity on CDF1 mouse leukemia induced by leukemic cells L1210; type: in vivo, CDF1 mice; conditions: 10 consecutive days
Description: (B) Antitumor activitiy on CDF1 mouse leukemia induced by leukemic cells L1210 of mice.
Leukemic cells L1210 of mice were intraperitoneally transplanted in an amount of 1×10^5 per mouse in CDF1 mice. Starting 24 hours after the transplantation, 3'-deamino-3'-morpholino-carminomycin was intraperitoneally or orally administered to the mice for 10 consecutive days. The survival rate (T/C, %) was calculated in comparison with a control group (to which physiological saline was administered).

Staph. aureus FDA 209P = assay: Minimum inhibitory concentration by broth dilution method; type: cell-based; conditions: Staphylococcus aureus, FDA209P
From the text: (§3) To illustrate such activity, minimum inhibitory concentrations (as determined by the broth dilution method) of the compound against several bacteria are shown in the Table below.

Staph. aureus Smith = assay: as above; type: cell-based; conditions: Staphylococcus aureus
From the text: as §3

[3] = tested on: Pseudomonas aeruginosa A3; assay: as above; type: cell-based
From the text: as §3

[4] = tested on: Bacillus subtilis NRRL B-558; assay: as above; type: cell-based; conditions: NRRLB558
From the text: as §3

[5] = tested on: Bacillus cereus ATCC 10702; assay: as above; type: cell-based; conditions: ATCC10702
From the text: as §3

[6] = tested on: Corynebacterium bovis 1810; assay: as above; type: cell-based
From the text: as §3

[7] = tested on: Micrococcus flavus FDA 16; assay: as above; type: cell-based; conditions: FDA16
From the text: as §3

Sarcina lutea PCI 1001 = assay: as above; type: cell-based; conditions: Micrococcus luteus, PCI1001
From the text: as §3

[8] = Acute toxicity by oral administration on CDF1 mouse; conditions: in vivo
From the text: (C) Acute toxicity by oral administration on CDF1 mouse.

leukemic cells L1210 [9] = assay: Inhibition of RNA synthesis (14C-uridine incorporation) in cultivated leukemic cells L1210 of mice; type: cell-based; conditions: Mus musculus, L1210, 1 h, 60 minutes, 37° C., RPMI 1640, 10% calf serum
Description: as §1, §2

leukemic cells L1210 [10] = assay: Inhibition of growth of cultivated leukemic cells L1210 of mice; type: cell-based; conditions: for IC50: Mus musculus, growth, RPMI 1640, 20% calf serum, 37° C.
Description: as §1
For example, L1210 cells were inoculated in a concentration of 5×10^4 /ml in an RPMI 1640 culture medium containing 20% calf serum (Rosewell Memorial Park Institute 1640), and simultaneously 3'-deamino-3'-morpholino-carminomycin was added in various concentrations. Thus, the cells were cultivated in an incubator containing carbon dioxide gas at 37° C. The 50% growth inhibitory concentration with respect to a control group was determined.

P-388 leukemia = conditions: vs P-388 leukemia in mice; reported in U.S. Pat. No. 4,301,277; cited from earlier work

SMILES: CC(=O)[C@]1(O)Cc2c(O)c3c(c(O)c2[C@@H](O[C@H]2C[C@H](N4CCOCC4)[C@H](O)[C@H](C)O2)C1)C(=O)c1c(O)cccc1C3=O [3'-Deamino-3'-morpholino-carminomycin]
- IC50 (leukemic cells L1210 [1]): 0.09 µg/mL (≈ 0.154 µM)
- T/C % of the survival period (leukemic cells L1210 [2]; i.p., 0.39 μg/mouse/day): 94%
- T/C % of the survival period (leukemic cells L1210 [2]; i.p., 0.78 μg/mouse/day): 122%
- T/C % of the survival period (leukemic cells L1210 [2]; i.p., 1.56 μg/mouse/day): 94%
- T/C % of the survival period (leukemic cells L1210 [2]; i.p., 3.125 μg/mouse/day): 122%
- T/C % of the survival period (leukemic cells L1210 [2]; i.p., 6.25 μg/mouse/day): 122%
- T/C % of the survival period (leukemic cells L1210 [2]; i.p., 12.5 μg/mouse/day): 194%
- toxicity (footnote *) (leukemic cells L1210 [2]; i.p., 12.5 μg/mouse/day): Toxic
- T/C % of the survival period (leukemic cells L1210 [2]; p.o., 0.39 μg/mouse/day): 100%
- T/C % of the survival period (leukemic cells L1210 [2]; p.o., 0.78 μg/mouse/day): 111%
- T/C % of the survival period (leukemic cells L1210 [2]; p.o., 1.56 μg/mouse/day): 106%
- T/C % of the survival period (leukemic cells L1210 [2]; p.o., 3.125 μg/mouse/day): 133%
- T/C % of the survival period (leukemic cells L1210 [2]; p.o., 6.25 μg/mouse/day): 167%
- T/C % of the survival period (leukemic cells L1210 [2]; p.o., 12.5 μg/mouse/day): 206%
- MIC (Staph. aureus FDA 209P): 0.78 µg/mL (≈ 1.34 µM)
- MIC (Staph. aureus Smith): 6.25 µg/mL (≈ 10.7 µM)
- MIC [3]: > 100 µg/mL
- MIC [4]: 1.56 µg/mL (≈ 2.67 µM)
- MIC [5]: 0.78 µg/mL (≈ 1.34 µM)
- MIC [6]: 0.39 µg/mL (≈ 0.668 µM)
- MIC [7]: 1.56 µg/mL (≈ 2.67 µM)
- MIC (Sarcina lutea PCI 1001): 0.78 µg/mL (≈ 1.34 µM)
- LD50 [8]: 1.56 mg/kg
- IC50 (leukemic cells L1210 [9]): 0.013 µg/mL (≈ 0.0223 µM)
- IC50 (leukemic cells L1210 [10]; L1210, 24 h, 1 day, read-out: IC50 growth, 1 day after): 0.01 µg/mL (≈ 0.0171 µM)
- IC50 (leukemic cells L1210 [10]; L1210, 48 h, 2 days, read-out: IC50 growth, 2 days after): 0.0009 µg/mL (≈ 0.00154 µM)
- inhibition of growth and nucleic acid synthesis (in words) (leukemic cells L1210 [10]; cultivated L1210 cells of mice): markedly inhibit the growth and nucleic acid synthesis

SMILES: COc1cccc2c1C(=O)c1c(O)c3c(c(O)c1C2=O)C[C@@](O)(C(=O)CO)C[C@@H]3O[C@H]1C[C@H](N2CCOCC2)[C@H](O)[C@H](C)O1 [3'-deamino-3'-morpholino-adriamycin, 3'-Deamino-3'-morpholino-adriamycin]
- antitumor potency relative to adriamycin and daunomycin starting materials (P-388 leukemia): significantly greater antitumor potency

SMILES: COc1cccc2c1C(=O)c1c(O)c3c(c(O)c1C2=O)C[C@@](O)(C(C)=O)C[C@@H]3O[C@H]1C[C@H](N2CCOCC2)[C@H](O)[C@H](C)O1 [3'-deamino-3'-morpholino-daunomycin, 3'-Deamino-3'-morpholinodaunomycin]
- antitumor potency relative to adriamycin and daunomycin starting materials (P-388 leukemia): significantly greater antitumor potency
